# Columns and labels:
# [1] = Inhibition of Influenza A virus (A/goose/Guangdong/SH7/2013(H5N1)) neuraminidase using 4-MU-NANA as substrate preincubated for 5 mins followed by substrate addition and measured after 30 to 60 mins by fluorescence assay; parameters: species or system H5N1 subtype
# [2] = Inhibition of Influenza A virus (A/Chicken/Hebei/UR/2014(H5N2)) neuraminidase using 4-MU-NANA as substrate preincubated for 5 mins followed by substrate addition and measured after 30 to 60 mins by fluorescence assay
# [3] = Inhibition of Influenza A virus (A/Babol/36/2005 (H3N2)) neuraminidase using 4-MU-NANA as substrate preincubated for 5 mins followed by substrate addition and measured after 30 to 60 mins by fluorescence assay
# [4] = Inhibition of Influenza A virus (A/Puerto Rico/8/1934(H1N1)) neuraminidase using 4-MU-NANA as substrate preincubated for 5 mins followed by substrate addition and measured after 30 to 60 mins by fluorescence assay
# [5] = Inhibition of Influenza A virus (A/California/04/2009(H1N1)) neuraminidase using 4-MU-NANA as substrate preincubated for 5 mins followed by substrate addition and measured after 30 to 60 mins by fluorescence assay
Compound,IC50 [1] [µM],IC50 [2] [µM],IC50 [3] [µM],IC50 [4] [µM],IC50 [5] [µM]
CCC(CC)O[C@@H]1C=C(C(=O)O)C[C@H](NCc2ccc(OCC3CCC3)cc2)[C@H]1NC(C)=O,6,58.2,84.2,7.77,47.5
CCC(CC)O[C@@H]1C=C(C(=O)O)C[C@H](NCc2ccc(OCc3cccc(C#N)c3)cc2)[C@H]1NC(C)=O,0.34,27,22.2,1.46,2.56
CCC(CC)O[C@@H]1C=C(C(=O)O)C[C@H](NCc2ccc(C#Cc3ccccc3)cc2)[C@H]1NC(C)=O,12,17.8,9.9,3.67,27.6
CCC(CC)O[C@@H]1C=C(C(=O)O)C[C@H](NCc2ccc(OCc3ccc(SC)cc3)cc2)[C@H]1NC(C)=O,0.98,11.6,13.7,1.48,4.02
CCC(CC)O[C@@H]1C=C(C(=O)O)C[C@H](NCc2ccc(NCc3ccc(F)cc3)cc2)[C@H]1NC(C)=O,2.11,0.86,0.48,0.96,1.07
CCC(CC)O[C@@H]1C=C(C(=O)O)C[C@H](NCc2ccc(Oc3ccc(OC)cc3)cc2)[C@H]1NC(C)=O,1.13,28.5,24.4,12.2,14.3
CCC(CC)O[C@@H]1C=C(C(=O)O)C[C@H](NCc2ccc(OCc3ccccc3C#N)cc2)[C@H]1NC(C)=O,1.37,61.1,> 100,22.9,21.4
CCC(CC)O[C@@H]1C=C(C(=O)O)C[C@H](NCc2ccc(OCc3ccccc3OC)cc2)[C@H]1NC(C)=O,1.31,26.6,38.7,7.64,13.5
CCC(CC)O[C@@H]1C=C(C(=O)O)C[C@H](NCc2ccc(OCC3CCCCC3)cc2)[C@H]1NC(C)=O,10.5,13.5,8.4,7.08,19.6
CCC(CC)O[C@@H]1C=C(C(=O)O)C[C@H](NCc2ccc(OCc3ccccc3F)cc2)[C@H]1NC(C)=O,0.3,46.6,44.5,0.48,0.48
CCC(CC)O[C@@H]1C=C(C(=O)O)C[C@H](NCc2ccc(OCc3cccc(C)c3)cc2)[C@H]1NC(C)=O,0.51,30.9,21.5,0.31,1.21
CCC(CC)O[C@@H]1C=C(C(=O)O)C[C@H](NCc2ccc(Oc3cccc(C)c3)cc2)[C@H]1NC(C)=O,0.49,12.8,9.21,0.99,1.68
CCC(CC)O[C@@H]1C=C(C(=O)O)C[C@H](NCc2ccc(SCc3ccc(OC)cc3)cc2)[C@H]1NC(C)=O,0.78,49.6,24.7,0.74,1.7
CCC(CC)O[C@@H]1C=C(C(=O)O)C[C@H](NCc2ccc(Oc3ccc(C)cc3)cc2)[C@H]1NC(C)=O,3.36,19.2,20.8,6.74,12.4
CCC(CC)O[C@@H]1C=C(C(=O)O)C[C@H](NCc2ccc(/C=C/c3ccccc3)cc2)[C@H]1NC(C)=O,0.26,10.6,4.78,0.69,0.44
CCC(CC)O[C@@H]1C=C(C(=O)O)C[C@H](NCc2ccc(OCc3cccc(B4OC(C)(C)C(C)(C)O4)c3)cc2)[C@H]1NC(C)=O,0.098,13.4,> 40,0.16,0.55
CCC(CC)O[C@@H]1C=C(C(=O)O)C[C@H](NCc2ccc(OCc3ccc(C#N)cc3)cc2)[C@H]1NC(C)=O,0.42,13.7,20.9,0.41,0.41
CCC(CC)O[C@@H]1C=C(C(=O)O)C[C@H](NCc2ccc(Oc3ccc(F)cc3)cc2)[C@H]1NC(C)=O,0.78,12.7,11.6,2.04,3.41
